In patent US6090802A, “1- Methylcarbapenem derivatives” (Sankyo Company, Limited, priority 1995, dated 2000) one finds MIC and nephrotoxicity data, which are given here for ten compounds.

Structures are written as SMILES. Values after ≈ are worked out from the molar mass of the structure shown.

In data set [1] the test system is Staphylococcus aureus 209P. Description: Antibacterial activity, agar plate dilution method (MIC). It counts as cell-based. Particulars: Microorganism A: Staphylococcus aureus 209P; read-out: Minimal inhibitory concentration. The method, then:
Antibacterial activity was measured by the agar plate dilution method, whereby the minimal inhibitory concentration (μg/ml) against various pathogenic bacteria was determined. In the Table, bacteria A, B and C provided for the test are as follows: A: Staphylococcus aureus […]

The next data set concerns Escherichia coli NIHJ. The data set is described as above. In kind it is cell-based. As to conditions: Microorganism B: Escherichia coli NIHJ; read-out: Minimal inhibitory concentration. The method, then: Antibacterial activity was measured by the agar plate dilution method, whereby the minimal inhibitory concentration (μg/ml) against various pathogenic bacteria was determined. In the Table, bacteria A, B and C provided for the test are as follows: B: Escherichia coli NIHJ

In data set [2] the test system is Pseudomonas aeruginosa 1001. The description is as above. In kind it is cell-based. Particulars: Microorganism C: Pseudomonas aeruginosa 1001; read-out: Minimal inhibitory concentration. Here is the method:
Antibacterial activity was measured by the agar plate dilution method, whereby the minimal inhibitory concentration (μg/ml) against various pathogenic bacteria was determined. In the Table, bacteria A, B and C provided for the test are as follows: C: Pseudomonas aeruginosa 1001

For data set [3] the following is noted: in words; background art; cited from earlier work.

Take `C[C@@H](O)[C@H]1C(=O)N2C(C(=O)O)=C(S[C@@H]3CN[C@H]([C@@H](O)CC(=O)N4CC[C@H](N)C4)C3)[C@H](C)[C@H]12` [Ex. 60, (1R,5S,6S)-2-[(2S,4S)-2-[2-[(3S)-3-Aminopyrrolidin-1-ylcarbonyl]-(1S)-1-hydroxyethyl]pyrrolidin-4-ylthio]-6-[(1R)-1-hydroxyethyl]-1-methyl-1-carbapen-2-em-3-carboxylic acid]: the MIC in data set [1] was no more than 0.01 µg/mL; in the data set on Escherichia coli NIHJ it was 0.02 µg/mL (≈ 0.0427 µM); in data set [2], 0.4 µg/mL (≈ 0.854 µM).

As for `C[C@@H](O)[C@H]1C(=O)N2C(C(=O)O)=C(SCCN=CN)C[C@H]12` [Imipenem, imipenem, reference compound], in data set [3], the nephrotoxicity entry is recorded as “exhibits nephrotoxicity”. Further, the MIC was no more than 0.01 µg/mL in data set [1], 0.05 µg/mL (≈ 0.167 µM) with Escherichia coli NIHJ and 3.1 µg/mL (≈ 10.4 µM) in data set [2].

`C[C@@H](O)[C@H]1C(=O)N2C(C(=O)O)=C(S[C@@H]3CN[C@H]([C@H](O)CC(=O)N4CC[C@H](N)C4)C3)[C@H](C)[C@H]12` [Ex. 59, (1R,5S,6S)-2-[(2S,4S)-2-[2-[(3S)-3-Aminopyrrolidin-1-ylcarbonyl]-(1R)-1-hydroxyethyl]pyrrolidin-4-ylthio]-6-[(1R)-1-hydroxyethyl]-1-methyl-1-carbapen-2-em-3-carboxylic acid]: the results for the MIC (in data set [1]; in the data set with Escherichia coli NIHJ; in data set [2]) were no more than 0.01 µg/mL, 0.02 µg/mL (≈ 0.0427 µM) and 0.2 µg/mL (≈ 0.427 µM), respectively.

As to `C[C@@H](O)[C@H]1C(=O)N2C(C(=O)O)=C(S[C@@H]3CN[C@H](C(=O)N4CC[C@H](NC(=O)[C@@H]5CCCN5)C4)C3)[C@H](C)[C@H]12` [Ex. 1, (1R,5S,6S)-6-(1R)-[1-Hydroxyethyl]-1-methyl-2-[(2S,4S)-2-[(3S)-3-(L-prolylamino)pyrrolidin-1-ylcarbonyl]pyrrolidin-4-ylthio]-1-carbapen-2-em-3-carboxylic acid], the MIC in data set [1] is no more than 0.01 µg/mL; in the data set with Escherichia coli NIHJ it was no more than 0.01 µg/mL; in data set [2], 0.1 µg/mL (≈ 0.192 µM).

Turning to `C[C@@H](O)[C@H]1C(=O)N2C(C(=O)O)=C(S[C@@H]3CN[C@H](C(O)CC(=O)N4CC[C@H](N)C4)C3)[C@H](C)[C@H]12` (stereo partly drawn) [Ex. 12, (1R,5S,6S)-2-[(2S,4S)-2-[1-Hydroxy-2-[(3S)-3-aminopyrrolidin-1-ylcarbonyl]ethyl]-pyrrolidin-4-ylthio]-6-[(1R)-1-hydroxyethyl]-1-methyl-1-carbapen-2-em-3-carboxylic acid], the MIC was no more than 0.01 µg/mL in data set [1], 0.02 µg/mL (≈ 0.0427 µM) in the data set on Escherichia coli NIHJ and 0.2 µg/mL (≈ 0.427 µM) in data set [2].

As for `C[C@@H](O)[C@H]1C(=O)N2C(C(=O)O)=C(S[C@@H]3CN[C@H](C(=O)N4CC[C@H](NC(=O)CNC(=N)N)C4)C3)[C@H](C)[C@H]12` [Ex. 8], the MIC in data set [1] is no more than 0.01 µg/mL; with Escherichia coli NIHJ it was no more than 0.01 µg/mL; in data set [2], 0.05 µg/mL (≈ 0.0955 µM).

Turning to `C[C@@H](O)[C@H]1C(=O)N2C(C(=O)O)=C(S[C@@H]3CN[C@H](C(=O)N4CC(NC(=O)CCNC(=N)N)C4)C3)[C@H](C)[C@H]12` [Ex. 17, (1R,5S,6S)-2-[(2S,4S)-2-[3-(3-Guanidinopropanoylamino)azetidin-1-ylcarbonyl]-pyrrolidin-4-ylthio]-6-[(1R)-1-hydroxyethyl]-1-methyl-1-carbapen-2-em-3-carboxylic acid], the MIC was no more than 0.01 µg/mL in data set [1], no more than 0.01 µg/mL with Escherichia coli NIHJ and 0.05 µg/mL (≈ 0.0955 µM) in data set [2].

For the compound `C[C@@H](NC(=N)N)C(=O)N[C@H]1CCN(C(=O)[C@@H]2C[C@H](SC3=C(C(=O)O)N4C(=O)[C@H]([C@@H](C)O)[C@H]4[C@H]3C)CN2)C1` [Ex. 27, (1R,5S,6S)-2-[(2S,4S)-2-[(3S)-3-[(2R)-2-Guanidino-2-methylacetylamino]pyrrolidin-1-ylcarbonyl]pyrrolidin-4-ylthio]-6-[(1R)-1-hydroxyethyl]-1-methyl-1-carbapen-2-em-3-carboxylic acid], the MIC in data set [1] is no more than 0.01 µg/mL; with Escherichia coli NIHJ it was no more than 0.01 µg/mL; in data set [2], 0.05 µg/mL (≈ 0.093 µM).

As to `C[C@@H](O)[C@H]1C(=O)N2C(C(=O)O)=C(S[C@@H]3CN[C@H](C(O)CC(=O)N[C@H]4CCNC4)C3)[C@H](C)[C@H]12` (stereo partly shown) [Ex. 49], the MIC in data set [1] is no more than 0.01 µg/mL; with Escherichia coli NIHJ it was 0.02 µg/mL (≈ 0.0427 µM); in data set [2], 0.4 µg/mL (≈ 0.854 µM).

Turning to `C[C@@H](O)[C@H]1C(=O)N2C(C(=O)O)=C(S[C@@H]3CN[C@H](C(O)CC(=O)N4CCN(C(=N)N)CC4)C3)[C@H](C)[C@H]12` (stereo partly drawn) [Ex. 51, (1R,5S,6S)-2-[(2S,4S)-2-[2-(4-Guanylpiperazin-1-ylcarbonyl)-1-hydroxyethyl]-pyrrolidin-4-ylthio]-6-[(1R)-1-hydroxyethyl]-1-methyl-1-carbapen-2-em-3-carboxylic acid], the MIC in data set [1] was no more than 0.01 µg/mL; with Escherichia coli NIHJ it was 0.02 µg/mL (≈ 0.0392 µM); in data set [2], 0.2 µg/mL (≈ 0.392 µM).
